Columns and labels:
Assay in all cases: combination Emax (second highest fraction inhibited in the dose matrix, 72 h); higher = more inhibition; extreme values may be limits of the assay
[1] = system: 647-V (Bladder Carcinoma)
Procedure, shortened: (§1)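 After 24 hours at 37°C and 5% CO2 in 1536-well plates, cells in DMEM/F12 or RPMI plus 10% FBS received two-drug dose matrices for 72 hours. Viability came from CellTiter-Glo 2.0 luminescence and was scaled as inhibition, anchored at 0 by vehicle wells and at 1 by blank wells. Combination Emax is taken as the second-highest inhibition in the matrix, and Bliss excess as the observed combination effect less EA + EB − EA·EB, with EA and EB the single-agent effects.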

[2] = system: MEG-01 (Chronic Myelogenous Leukemia)
Procedure, shortened: as §1

[3] = system: SKN-3 (Head and Neck Carcinoma)
Procedure, shortened: as §1

Saos-2 (Osteosarcoma) = system: Saos-2 (Osteosarcoma)
Procedure, shortened: as §1

[4] = system: NOMO-1 (Acute Myeloid Leukemia)
Procedure, shortened: as §1

[5] = system: SW48 (Colorectal Carcinoma)
Procedure, shortened: as §1

MCF7 (Breast Carcinoma) = system: MCF7 (Breast Carcinoma)
Procedure, shortened: as §1

[6] = system: HCT-116 (Colorectal Carcinoma)
Procedure, shortened: as §1

[7] = system: SK-LMS-1 (Other Solid Carcinomas)
Procedure, shortened: as §1

[8] = system: SNU-61 (Colorectal Carcinoma)
Procedure, shortened: as §1

[9] = system: WSU-DLCL2 (B-Cell Non-Hodgkin's Lymphoma)
Procedure, shortened: as §1

[10] = system: ETK-1 (Biliary Tract Carcinoma)
Procedure, shortened: as §1

[11] = system: SLVL (B-Cell Non-Hodgkin's Lymphoma)
Procedure, shortened: as §1

A172 (Glioblastoma) = system: A172 (Glioblastoma)
Procedure, shortened: as §1

[12] = system: U-118-MG (Low Grade Glioma)
Procedure, shortened: as §1

[13] = system: P31-FUJ (Acute Myeloid Leukemia)
Procedure, shortened: as §1

[14] = system: RCC10RGB (Kidney Carcinoma)
Procedure, shortened: as §1

[15] = system: BICR78 (Oral Cavity Carcinoma)
Procedure, shortened: as §1

[16] = system: TYK-nu (Ovarian Carcinoma)
Procedure, shortened: as §1

HCC38 (Breast Carcinoma) = system: HCC38 (Breast Carcinoma)
Procedure, shortened: as §1

Row | SMILES | combination Emax [1] | combination Emax [2] | combination Emax [3] | combination Emax (Saos-2 (Osteosarcoma)) | combination Emax [4] | combination Emax [5] | combination Emax (MCF7 (Breast Carcinoma)) | combination Emax [6] | combination Emax [7] | combination Emax [8] | combination Emax [9] | combination Emax [10] | combination Emax [11] | combination Emax (A172 (Glioblastoma)) | combination Emax [12] | combination Emax [13] | combination Emax [14] | combination Emax [15] | combination Emax [16] | combination Emax (HCC38 (Breast Carcinoma))
1 | Cc1c2c(nn1C)CSCc1cc(n(C)n1)CSc1cc(c3ccccc3c1)OCCCc1c(C(=O)O)n(C)c3c-2c(Cl)ccc13 [AZD5991] + CCN(CCO)CCCOc1ccc2c(Nc3cc(CC(=O)Nc4cccc(F)c4)[nH]n3)ncnc2c1 [AZD2811] (first compound max 1 µM, 7x7, partner max 1 µM) | 0.834 | 0.758 | 0.271 | 0.816 | 0.93 | 0.984 | 0.692 | 0.438 | 0.272 | 0.254 | 1 | 0.294 | 0.768 | 0.474 | 0.342 | 0.994 | 0.292 | 0.304 | 0.534 | 0.521
2 | Cc1c2c(nn1C)CSCc1cc(n(C)n1)CSc1cc(c3ccccc3c1)OCCCc1c(C(=O)O)n(C)c3c-2c(Cl)ccc13 [AZD5991] + CN(C)CCCOc1ccc(-c2ccc3ncc4c(c3c2)n(C2CCOCC2)c(=O)n4C)cn1 [AZD0156] (first compound max 1 µM, 7x7, partner max 1 µM) | 0.878 | 0.432 | 0.339 | 0.239 | 0.863 | 0.216 | 0.612 | 0.265 | 0.205 | 0.196 | 1 | 0.26 | 0.425 | 0.228 | 0.27 | 0.974 | 0.243 | 0.219 | 0.397 | 0.365
3 | Cc1c2c(nn1C)CSCc1cc(n(C)n1)CSc1cc(c3ccccc3c1)OCCCc1c(C(=O)O)n(C)c3c-2c(Cl)ccc13 [AZD5991] + C[C@@H]1COCCN1C2=NC(=NC(=C2)C3(CC3)[S@](=N)(=O)C)C4=C5C=CNC5=NC=C4 [AZD6738] (first compound max 1 µM, 7x7, partner max 10 µM) | 0.92 | 0.931 | 0.687 | 0.6 | 0.995 | 0.739 | 0.776 | 0.63 | 0.453 | 0.349 | 1 | 0.658 | 0.873 | 0.679 | 0.506 | 0.998 | 0.43 | 0.612 | 0.74 | 0.688
4 | Cc1c2c(nn1C)CSCc1cc(n(C)n1)CSc1cc(c3ccccc3c1)OCCCc1c(C(=O)O)n(C)c3c-2c(Cl)ccc13 [AZD5991] + C[C@@H](Nc1cc(F)cc(F)c1)c1cc(C(=O)N(C)C)cc2c(=O)cc(N3CCOCC3)oc12 [AZD8186] (first compound max 1 µM, 7x7, partner max 3 µM) | 0.802 | 0.416 | 0.31 | 0.491 | 0.905 | 0.387 | 0.71 | 0.248 | 0.453 | 0.168 | 1 | 0.306 | 0.47 | 0.304 | 0.45 | 0.959 | 0.557 | 0.189 | 0.254 | 0.396
5 | Cc1c2c(nn1C)CSCc1cc(n(C)n1)CSc1cc(c3ccccc3c1)OCCCc1c(C(=O)O)n(C)c3c-2c(Cl)ccc13 [AZD5991] + Cc1cc2ncnn2cc1Nc1ncc2c(n1)n(C1CCOCC1)c(=O)n2C [AZD7648] (first compound max 1 µM, 7x7, partner max 10 µM) | 0.719 | 0.468 | 0.179 | 0.285 | 0.865 | 0.33 | 0.665 | 0.311 | 0.344 | 0.19 | 1 | 0.294 | 0.487 | 0.322 | 0.425 | 0.965 | 0.342 | 0.219 | 0.412 | 0.335
6 | Cc1c2c(nn1C)CSCc1cc(n(C)n1)CSc1cc(c3ccccc3c1)OCCCc1c(C(=O)O)n(C)c3c-2c(Cl)ccc13 [AZD5991] + Cn1cnc2c(F)c(Nc3ccc(Br)cc3Cl)c(C(=O)NOCCO)cc21 [Selumetinib] (first compound max 1 µM, 7x7, partner max 3 µM) | 0.91 | 0.872 | 0.387 | 0.247 | 1 | 0.565 | 0.559 | 0.523 | 0.22 | 0.464 | 1 | 0.311 | 0.47 | 0.316 | 0.326 | 0.998 | 0.497 | 0.441 | 0.513 | 0.33
7 | C[C@@H]1COCCN1c1cc(C2([S@](C)(=N)=O)CC2)nc(-c2ccnc3[nH]ccc23)n1 [AZD6738] + O=C(c1cc(Cc2n[nH]c(=O)c3ccccc23)ccc1F)N1CCN(C(=O)C2CC2)CC1 [Olaparib] (first compound max 10 µM, 7x7, partner max 10 µM) | 0.61 | 0.908 | 0.391 | 0.466 | 0.908 | 0.72 | 0.573 | 0.78 | 0.529 | 0.27 | 0.92 | 0.678 | 0.834 | 0.717 | 0.589 | 0.877 | 0.441 | 0.615 | 0.665 | 0.611
8 | Cc1cc2ncnn2cc1Nc1ncc2c(n1)n(C1CCOCC1)c(=O)n2C [AZD7648] + C=CCn1c(=O)c2cnc(Nc3ccc(N4CCN(C)CC4)cc3)nc2n1-c1cccc(C(C)(C)O)n1 [AZD1775] (first compound max 10 µM, partner max 1 µM) | 0.52 | 0.923 | 0.283 | 0.582 | 0.961 | 0.45 | 0.552 | 0.633 | 0.572 | 0.401 | 0.999 | 0.452 | 0.916 | 0.617 | 0.435 | 0.987 | 0.552 | 0.375 | 0.695 | 0.531
9 | Cc1cc2ncnn2cc1Nc1ncc2c(n1)n(C1CCOCC1)c(=O)n2C [AZD7648] + CCN(CCO)CCCOc1ccc2c(Nc3cc(CC(=O)Nc4cccc(F)c4)[nH]n3)ncnc2c1 [AZD2811] (first compound max 10 µM, 7x7, partner max 1 µM) | 0.262 | 0.507 | 0.128 | 0.45 | 0.606 | 0.963 | 0.55 | 0.528 | 0.409 | 0.254 | 0.476 | 0.25 | 0.687 | 0.611 | 0.317 | 0.957 | 0.264 | 0.354 | 0.422 | 0.287
10 | Cc1cc2ncnn2cc1Nc1ncc2c(n1)n(C1CCOCC1)c(=O)n2C [AZD7648] + CN(C)CCCOc1ccc(-c2ccc3ncc4c(c3c2)n(C2CCOCC2)c(=O)n4C)cn1 [AZD0156] (first compound max 10 µM, 7x7, partner max 1 µM) | 0.222 | 0.361 | 0.111 | 0.171 | 0.461 | 0.329 | 0.373 | 0.317 | 0.428 | 0.172 | 0.345 | 0.155 | 0.404 | 0.319 | 0.277 | 0.566 | 0.3 | 0.208 | 0.431 | 0.233
11 | Cc1cc2ncnn2cc1Nc1ncc2c(n1)n(C1CCOCC1)c(=O)n2C [AZD7648] + C[C@@H]1COCCN1C2=NC(=NC(=C2)C3(CC3)[S@](=N)(=O)C)C4=C5C=CNC5=NC=C4 [AZD6738] (first compound max 10 µM, 7x7, partner max 10 µM) | 0.585 | 0.894 | 0.185 | 0.561 | 0.961 | 0.681 | 0.755 | 0.723 | 0.533 | 0.326 | 0.905 | 0.621 | 0.886 | 0.687 | 0.435 | 0.967 | 0.316 | 0.598 | 0.695 | 0.565
12 | Cc1cc2ncnn2cc1Nc1ncc2c(n1)n(C1CCOCC1)c(=O)n2C [AZD7648] + O=C(c1cc(Cc2n[nH]c(=O)c3ccccc23)ccc1F)N1CCN(C(=O)C2CC2)CC1 [Olaparib] (first compound max 10 µM, 7x7, partner max 10 µM) | 0.219 | 0.22 | 0.0538 | 0.14 | 0.365 | 0.246 | 0.29 | 0.234 | 0.281 | 0.0443 | 0.307 | 0.323 | 0.455 | 0.468 | 0.394 | 0.34 | 0.18 | 0.182 | 0.415 | 0.07
13 | NC1(C(=O)N[C@@H](CCO)c2ccc(Cl)cc2)CCN(c2ncnc3[nH]ccc23)CC1 [Capivasertib] + CC(=O)c1c(C)c2cnc(Nc3ccc(N4CCNCC4)cn3)nc2n(C2CCCC2)c1=O [Palbociclib] (first compound max 10 µM, 7x7, partner max 10 µM) | 0.277 | 0.468 | 0.474 | 0.407 | 0.517 | 0.63 | 0.676 | 0.782 | 0.433 | 0.168 | 1 | 0.419 | 0.56 | 0.671 | 0.676 | 0.571 | 0.54 | 0.424 | 0.505 | 0.209
